{"source": "patent US20060069132A1", "about": "“Azolecarboxamide herbicides” (priority 2004, published 2006)", "key": {"large crabgrass": {"test_system": "large crabgrass", "assay": "Test C pre-/postemergence herbicide test", "assay_type": "in vivo, Digitaria sanguinalis", "conditions": "preemergence; for Plant response rating (0 = no effect, 100 = complete control), Crabgrass, Large: 125 g ai/ha", "outline": "(§1)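 Pre/post spray; non-phytotoxic solvent + surfactant. Post-timing 1–4 leaves, 2–18 cm. Read-out: visual % control vs untreated, day 12–14, greenhouse.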"}, "goosegrass": {"test_system": "goosegrass", "assay": "Test C pre-/postemergence herbicide test", "assay_type": "in vivo, Eleusine indica", "conditions": "preemergence; for Plant response rating (0 = no effect, 100 = complete control), Goosegrass: 125 g ai/ha", "outline": "as §1"}, "kochia": {"test_system": "kochia", "assay": "Test C pre-/postemergence herbicide test", "assay_type": "in vivo, Kochia scoparia", "conditions": "preemergence; for Plant response rating (0 = no effect, 100 = complete control), Kochia: 125 g ai/ha", "outline": "as §1"}, "pigweed": {"test_system": "pigweed", "assay": "Test C pre-/postemergence herbicide test", "assay_type": "in vivo, Amaranthus retroflexus", "conditions": "preemergence; for Plant response rating (0 = no effect, 100 = complete control), Pigweed: 125 g ai/ha", "outline": "as §1"}, "common ragweed": {"test_system": "common ragweed", "assay": "Test C pre-/postemergence herbicide test", "assay_type": "in vivo, Ambrosia elatior", "parameters": "key to Plant response rating, Ragweed: 0 = no effect, 100 = complete control", "conditions": "preemergence; for Plant response rating (0 = no effect, 100 = complete control), Ragweed: 125 g ai/ha", "outline": "as §1"}, "velvetleaf": {"test_system": "velvetleaf", "assay": "Test C pre-/postemergence herbicide test", "assay_type": "in vivo, Abutilon theophrasti", "conditions": "preemergence; for Plant response rating (0 = no effect, 100 = complete control), Velvetleaf: 125 g ai/ha", "outline": "as §1"}, "barnyardgrass": {"test_system": "barnyardgrass", "assay": "Test C flooded paddy test", "assay_type": "in vivo, Echinochloa crus-galli", "conditions": "for Plant response rating, Barnyardgrass: 500 g ai/ha, visual rating after 12 to 14 days", "outline": "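Postemergence sprays applied to plants 2 to 18 cm tall (1- to 4-leaf stage); paddy species grown to 2-leaf stage under flooding. After 12 to 14 days in greenhouse, visual rating versus untreated controls on 0–100 scale (0 no effect, 100 complete control).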"}, "[1]": {"conditions": "500 g ai/ha, scale 0 to 100 (0 no effect, 100 complete control), visual, 12 to 14 days"}, "[2]": {"conditions": "62 g ai/ha, scale 0 to 100 (0 no effect, 100 complete control)"}, "[3]": {"conditions": "125 g ai/ha, scale 0 to 100 (0 no effect, 100 complete control)"}, "[4]": {"conditions": "250 g ai/ha, scale of 0 to 100, 0 is no effect, 100 is complete control"}, "[5]": {"conditions": "scale 0 to 100 (0 no effect, 100 complete control)"}}, "data": [{"smiles": "CCc1nn(C(C)(C)C)nc1C(=O)Nc1cccc(C(=S)N(C)C)c1", "note": "[Compound 395]", "values": [{"measurement": "Plant response rating, Crabgrass, Large", "setting": "large crabgrass; 62 g ai/ha, scale 0 to 100", "value": 100}, {"measurement": "Plant response rating (0 = no effect, 100 = complete control), Crabgrass, Large", "setting": "large crabgrass", "value": 100}, {"measurement": "Plant response rating, Crabgrass, Large", "setting": "large crabgrass; 250 g ai/ha, scale 0-100", "value": 100}, {"measurement": "Plant response rating, Crabgrass, Large", "setting": "large crabgrass; [1]", "value": 100}, {"measurement": "Plant response rating, Goosegrass", "setting": "goosegrass; 62 g ai/ha, scale 0 to 100", "value": 95}, {"measurement": "Plant response rating (0 = no effect, 100 = complete control), Goosegrass", "setting": "goosegrass", "value": 95}, {"measurement": "Plant response rating, Goosegrass", "setting": "goosegrass; 250 g ai/ha, scale 0-100", "value": 100}, {"measurement": "Plant response rating, Goosegrass", "setting": "goosegrass; [1]", "value": 100}, {"measurement": "Plant response rating, Kochia", "setting": "kochia; 62 g ai/ha, scale 0 to 100", "value": 100}, {"measurement": "Plant response rating (0 = no effect, 100 = complete control), Kochia", "setting": "kochia", "value": 100}, {"measurement": "Plant response rating, Kochia", "setting": "kochia; 250 g ai/ha, scale 0-100", "value": 100}, {"measurement": "Plant response rating, Kochia", "setting": "kochia; [1]", "value": 100}, {"measurement": "Plant response rating, Pigweed", "setting": "pigweed; 62 g ai/ha, scale 0 to 100", "value": 100}, {"measurement": "Plant response rating (0 = no effect, 100 = complete control), Pigweed", "setting": "pigweed", "value": 100}, {"measurement": "Plant response rating, Pigweed", "setting": "pigweed; 250 g ai/ha, scale 0-100", "value": 100}, {"measurement": "Plant response rating, Pigweed", "setting": "pigweed; [1]", "value": 100}, {"measurement": "Plant response rating, Ragweed", "setting": "common ragweed; 62 g ai/ha, scale 0 to 100", "value": 65}, {"measurement": "Plant response rating (0 = no effect, 100 = complete control), Ragweed", "setting": "common ragweed", "value": 95}, {"measurement": "Plant response rating, Ragweed", "setting": "common ragweed; 250 g ai/ha, scale 0-100", "value": 100}, {"measurement": "Plant response rating, Ragweed", "setting": "common ragweed; [1]", "value": 100}, {"measurement": "Plant response rating, Velvetleaf", "setting": "velvetleaf; 62 g ai/ha, scale 0 to 100", "value": 95}, {"measurement": "Plant response rating (0 = no effect, 100 = complete control), Velvetleaf", "setting": "velvetleaf", "value": 100}, {"measurement": "Plant response rating, Velvetleaf", "setting": "velvetleaf; 250 g ai/ha, scale 0-100", "value": 100}, {"measurement": "Plant response rating, Velvetleaf", "setting": "velvetleaf; [1]", "value": 100}, {"measurement": "Barnyardgrass plant response rating", "setting": "barnyardgrass; [2]", "value": 75}, {"measurement": "Barnyardgrass plant response rating", "setting": "barnyardgrass; [3]", "value": 80}, {"measurement": "Barnyardgrass plant response rating", "setting": "barnyardgrass; [4]", "value": 80}, {"measurement": "Plant response rating, Barnyardgrass", "setting": "barnyardgrass; [5]", "value": 90}]}, {"smiles": "CCNC(=O)c1cccc(NC(=O)c2nn(C(C)(C)C)nc2C)c1", "note": "[Compound 392]", "values": [{"measurement": "Plant response rating, Crabgrass, Large", "setting": "large crabgrass; 62 g ai/ha, scale 0 to 100", "value": 98}, {"measurement": "Plant response rating (0 = no effect, 100 = complete control), Crabgrass, Large", "setting": "large crabgrass", "value": 100}, {"measurement": "Plant response rating, Crabgrass, Large", "setting": "large crabgrass; 250 g ai/ha, scale 0-100", "value": 100}, {"measurement": "Plant response rating, Crabgrass, Large", "setting": "large crabgrass; [1]", "value": 100}, {"measurement": "Plant response rating, Goosegrass", "setting": "goosegrass; 62 g ai/ha, scale 0 to 100", "value": 85}, {"measurement": "Plant response rating (0 = no effect, 100 = complete control), Goosegrass", "setting": "goosegrass", "value": 95}, {"measurement": "Plant response rating, Goosegrass", "setting": "goosegrass; 250 g ai/ha, scale 0-100", "value": 95}, {"measurement": "Plant response rating, Goosegrass", "setting": "goosegrass; [1]", "value": 98}, {"measurement": "Plant response rating, Kochia", "setting": "kochia; 62 g ai/ha, scale 0 to 100", "value": 75}, {"measurement": "Plant response rating (0 = no effect, 100 = complete control), Kochia", "setting": "kochia", "value": 80}, {"measurement": "Plant response rating, Kochia", "setting": "kochia; 250 g ai/ha, scale 0-100", "value": 100}, {"measurement": "Plant response rating, Kochia", "setting": "kochia; [1]", "value": 100}, {"measurement": "Plant response rating, Pigweed", "setting": "pigweed; 62 g ai/ha, scale 0 to 100", "value": 100}, {"measurement": "Plant response rating (0 = no effect, 100 = complete control), Pigweed", "setting": "pigweed", "value": 100}, {"measurement": "Plant response rating, Pigweed", "setting": "pigweed; 250 g ai/ha, scale 0-100", "value": 100}, {"measurement": "Plant response rating, Pigweed", "setting": "pigweed; [1]", "value": 100}, {"measurement": "Plant response rating, Ragweed", "setting": "common ragweed; 62 g ai/ha, scale 0 to 100", "value": 60}, {"measurement": "Plant response rating (0 = no effect, 100 = complete control), Ragweed", "setting": "common ragweed", "value": 100}, {"measurement": "Plant response rating, Ragweed", "setting": "common ragweed; 250 g ai/ha, scale 0-100", "value": 100}, {"measurement": "Plant response rating, Ragweed", "setting": "common ragweed; [1]", "value": 100}, {"measurement": "Plant response rating, Velvetleaf", "setting": "velvetleaf; 62 g ai/ha, scale 0 to 100", "value": 70}, {"measurement": "Plant response rating (0 = no effect, 100 = complete control), Velvetleaf", "setting": "velvetleaf", "value": 100}, {"measurement": "Plant response rating, Velvetleaf", "setting": "velvetleaf; 250 g ai/ha, scale 0-100", "value": 100}, {"measurement": "Plant response rating, Velvetleaf", "setting": "velvetleaf; [1]", "value": 100}, {"measurement": "Barnyardgrass plant response rating", "setting": "barnyardgrass; [2]", "value": 15}, {"measurement": "Barnyardgrass plant response rating", "setting": "barnyardgrass; [3]", "value": 45}, {"measurement": "Barnyardgrass plant response rating", "setting": "barnyardgrass; [4]", "value": 80}, {"measurement": "Plant response rating, Barnyardgrass", "setting": "barnyardgrass; [5]", "value": 90}]}, {"smiles": "CCc1nn(C(C)(C)C)nc1C(=S)Nc1cccc(C(=S)N(C)C)c1", "note": "[Compound 396]", "values": [{"measurement": "Plant response rating, Crabgrass, Large", "setting": "large crabgrass; 62 g ai/ha, scale 0 to 100", "value": 100}, {"measurement": "Plant response rating (0 = no effect, 100 = complete control), Crabgrass, Large", "setting": "large crabgrass", "value": 100}, {"measurement": "Plant response rating, Crabgrass, Large", "setting": "large crabgrass; 250 g ai/ha, scale 0-100", "value": 100}, {"measurement": "Plant response rating, Crabgrass, Large", "setting": "large crabgrass; [1]", "value": 100}, {"measurement": "Plant response rating, Goosegrass", "setting": "goosegrass; 62 g ai/ha, scale 0 to 100", "value": 95}, {"measurement": "Plant response rating (0 = no effect, 100 = complete control), Goosegrass", "setting": "goosegrass", "value": 100}, {"measurement": "Plant response rating, Goosegrass", "setting": "goosegrass; 250 g ai/ha, scale 0-100", "value": 100}, {"measurement": "Plant response rating, Goosegrass", "setting": "goosegrass; [1]", "value": 100}, {"measurement": "Plant response rating, Kochia", "setting": "kochia; 62 g ai/ha, scale 0 to 100", "value": 0}, {"measurement": "Plant response rating (0 = no effect, 100 = complete control), Kochia", "setting": "kochia", "value": 45}, {"measurement": "Plant response rating, Kochia", "setting": "kochia; 250 g ai/ha, scale 0-100", "value": 100}, {"measurement": "Plant response rating, Kochia", "setting": "kochia; [1]", "value": 100}, {"measurement": "Plant response rating, Pigweed", "setting": "pigweed; 62 g ai/ha, scale 0 to 100", "value": 100}, {"measurement": "Plant response rating (0 = no effect, 100 = complete control), Pigweed", "setting": "pigweed", "value": 100}, {"measurement": "Plant response rating, Pigweed", "setting": "pigweed; 250 g ai/ha, scale 0-100", "value": 100}, {"measurement": "Plant response rating, Pigweed", "setting": "pigweed; [1]", "value": 100}, {"measurement": "Plant response rating, Ragweed", "setting": "common ragweed; 62 g ai/ha, scale 0 to 100", "value": 0}, {"measurement": "Plant response rating (0 = no effect, 100 = complete control), Ragweed", "setting": "common ragweed", "value": 0}, {"measurement": "Plant response rating, Ragweed", "setting": "common ragweed; 250 g ai/ha, scale 0-100", "value": 80}, {"measurement": "Plant response rating, Ragweed", "setting": "common ragweed; [1]", "value": 95}, {"measurement": "Plant response rating, Velvetleaf", "setting": "velvetleaf; 62 g ai/ha, scale 0 to 100", "value": 0}, {"measurement": "Plant response rating (0 = no effect, 100 = complete control), Velvetleaf", "setting": "velvetleaf", "value": 45}, {"measurement": "Plant response rating, Velvetleaf", "setting": "velvetleaf; 250 g ai/ha, scale 0-100", "value": 100}, {"measurement": "Plant response rating, Velvetleaf", "setting": "velvetleaf; [1]", "value": 100}, {"measurement": "Barnyardgrass plant response rating", "setting": "barnyardgrass; [2]", "value": 65}, {"measurement": "Barnyardgrass plant response rating", "setting": "barnyardgrass; [3]", "value": 75}, {"measurement": "Barnyardgrass plant response rating", "setting": "barnyardgrass; [4]", "value": 75}, {"measurement": "Plant response rating, Barnyardgrass", "setting": "barnyardgrass; [5]", "value": 80}]}]}
